Data from patent publication US20240099343A1, “USE OF GINGERDIOL COMPOUNDS TO ENHANCE FLAVOR” (Firmenich SA, priority 2021, published 2024).

How the values were obtained:
[1] = Sensory testing with salt reduction, mushroom-based cream soup, panel of four expert tasters; format: in vivo; conditions: 20% reduced salt (0.684%) with 1 ppm compound, scale from 1 to 10
Method: Sensory testing was carried out using a panel of four (4) expert tasters, who rated the taste of the a mushroom-based cream soup with: (a) a normal amount of salt (0.855%); (b) 20% reduced salt (0.684%); and (c) 20% reduced salt (0.684%) with 1 ppm [6]-gingerdiol-diacetate. The panelists rated the soups for salt intensity, umami intensity, bitter intensity, and overall liking on a scale from 1 to 10.

[2] = Sensory testing with salt reduction, meat flavoring formulation, panel of three expert tasters; format: in vivo; conditions: 20% reduced salt (0.646%) with 1 ppm compound, scale from 1 to 10
Method: Further sensory testing was carried out using a panel of three (3) expert tasters, who rated the taste of a meat flavoring formulation with: (a) a normal amount of salt ([…]); (b) 20% reduced salt (0.646%); and (c) 20% reduced salt (0.646%) with 1 ppm [6]-gingerdiol-diacetate. The panelists rated the soups for salt intensity, umami intensity, bitter intensity, and overall liking on a scale from 1 to 10.

SMILES: CCCCCC(CC(CCc1ccc(O)c(OC)c1)OC(C)=O)OC(C)=O (centres unmarked) [Gingerdiol, [6]-gingerdiol-diacetate]
- Bitter (bitter intensity) [1]: 0.0
- Overall Liking [1]: 2.3
- Saltiness (salt intensity) [1]: 3.3
- Umami (umami intensity) [1]: 3.0
- Bitter (bitter intensity) [2]: 2.3
- Overall Liking [2]: 5.0
- Saltiness (salt intensity) [2]: 5.3
- Umami (umami intensity) [2]: 4.0
